Data on 33 molecules can be found in patent US11992535B2, “Compounds and probes for imaging huntingtin protein” (CHDI Foundation, Inc., priority 2019, dated 2024).

Where two headings read alike, the source gives them in different places.

The target in the assay is aggregated MBP-HTT(1-89)Q46-His(6×) (Exonl-Q46) protein (Q46 protein aggregates) (Homo sapiens (Human), UniProt P42858, INS38QQQQQQQQQQQQQQQQQQQQQQQQQ). Kind of assay: Q46 Radioligand Binding Assay. The conditions noted are these: read-out: Q46_RBA EC50_. The method, then: Q46 Radioligand Binding Assay
Sequence of aggregated MBP-HTT(1-89)Q46-His(6×) (Exonl-Q46) protein (Q46 protein aggregates) (P42858 other isoform, or with tags, fused parts or gaps, stated change not applied): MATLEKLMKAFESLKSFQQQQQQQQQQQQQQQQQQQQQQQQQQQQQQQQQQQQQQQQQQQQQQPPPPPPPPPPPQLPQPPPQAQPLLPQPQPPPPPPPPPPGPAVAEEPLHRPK
For radioligand binding assays (RBA) MBP-HTT(1-89)Q46-His(6×) (“Exonl-Q46”) protein was generated based on a previous publication (Scherzinger et al. Cell, Vol. 90, 549-558, Aug. 8, 1997). For experiments 30 μM MBP-Exonl-Q46 was incubated with 150 μg/mL thrombin in assay buffer (150 mM NaCl, 50 mM Tris pH 8.0) and 2 mM CaCl2 for 16 hours at 37° C. Aggregated Exonl-Q46 was pelleted by centrifugation for 5 minutes at 13,000 rpm in a bench top centrifuge and re-dissolved in the same volume of assay buffer. Test compounds were prepared by titration in DMSO at 11 concentrations from 63 μM to 2 nM. For the RBA, Q46 protein aggregates and test compounds were pre-incubated in assay buffer for 20 minutes at room temperature, in 100 μL/well in a 96-well plate (pp, round bottom). Then, ligand was added in 50 μL/well and incubated for 60 minutes at 37° C. Final assay concentrations were 1 μM to 30 μM test compound, 1 μM Exonl-Q46 protein (equivalent monomer concentration) and 0.3 nM ligand [^3H3-methyl]-5-((5-methoxypyridin-2-yl)methoxy)-2-(pyrazin-2-yl)benzo[d]oxazole. Samples were transferred onto GF/B filter plates and washed 2× with 200 μL PBS using a Filtermate Harvester. After drying filter plates for 1 hour at 55° C., the back of the plates were sealed with foil and 30 μL/well scintillation fluid (Packard MicroScint 40) added, incubated for 15 minutes in the dark and counted in a MicroBeta reader. For analysis, replicate data from independent assay plates were normalized towards 0% and 100% inhibition using control wells of vehicle (0% inhibition) and 1 μM unlabelled [^3H3-methyl]-5-((5-methoxypyridin-2-yl)methoxy)-2-(pyrazin-2-yl)benzo[d]oxazole (100% inhibition). IC50 values were determined with a sigmoidal inhibition model with four variables (top, bottom, slope, IC50) in a global fit using the normalized replicate data.

[1] abbreviates: displacement of 0.3 nM [3H3-methyl]-5-((5-methoxypyridin-2-yl)methoxy)-2-(pyrazin-2-yl)benzo[d]oxazole from 1 μM Exonl-Q46 aggregates, method calls the values IC50.
The mark [2] stands for this setting: same radioligand displacement on Exonl-Q46 aggregates.

Broadly, the EC50 is the concentration that produces a half-maximal response. On to `COc1ccc(COc2ccc3c(c2)CN(c2ccc(OC)cn2)CC3)nc1` [Example 8, 2-(5-Methoxypyridin-2-yl)-7-[(5-methoxypyridin-2-yl)methoxy]-1,2,3,4-tetrahydroisoquinoline], for which the EC50 under setting [1] came to 1.79 nM and the EC50 under setting [2] was less than 100 nM.

`COc1ccc(COc2ccc3c(c2)CN(c2cc(OC)ccn2)CC3)nc1` [Example 8.1]: the concentration for a half-maximal effect (EC50) is 1.7 nM under setting [1] and less than 100 nM under setting [2].

Take `COc1ccc(COc2ccc3c(c2)CN(c2cccc(OC)n2)CC3)nc1` [Example 8.2]: the concentration for a half-maximal effect (EC50) reads like this: under setting [1], 2.02 nM; under setting [2], less than 100 nM.

As to `COc1ccc(COc2ccc3c(c2)C(C)N(C(=O)c2ccc(OC)nc2)CC3)nc1` (stereo not drawn) [Example 9, 7-[(5-Methoxypyridin-2-yl)methoxy]-2-(6-methoxypyridine-3-carbonyl)-1-methyl-1,2,3,4-tetrahydroisoquinoline], the EC50 is 14.5 nM under setting [1] and less than 100 nM under setting [2].

With `COc1ccc(COc2ccc3c(c2)CN(c2ccc(OC)nc2)C(=O)C3)nc1` [Example 10, 7-[(5-Methoxypyridin-2-yl)methoxy]-2-(6-methoxypyridin-3-yl)-1,2,3,4-tetrahydroisoquinolin-3-one], the 50% effective concentration (EC50) is 186 nM under setting [1] and 100 to 500 nM under setting [2].

As to `COc1ccc(C(=O)Nc2ccc3c(c2)CN(c2ccc(OC)nc2)CC3)nc1` [Example 11, 5-Methoxy-N-[2-(6-methoxypyridin-3-yl)-1,2,3,4-tetrahydroisoquinolin-7-yl]pyridine-2-carboxamide], the EC50 was 1.3 nM under setting [1] and less than 100 nM under setting [2].

In the case of `COc1ccc(C(=O)Nc2ccc3c(c2)CN(C(=O)c2ccc(OC)nc2)CC3)nc1` [Example 12], the EC50 under setting [1] is 1.72 nM and the EC50 under setting [2] was less than 100 nM.

On to `COc1ccc(C(=O)N(C)c2ccc3c(c2)CN(C(=O)c2ccc(OC)nc2)CC3)nc1` [Example 13], for which the EC50 is 1000 nM under setting [1] and greater than 500 nM under setting [2].

As to `COc1ccc(COc2ccc3c(c2)CN(C(=O)c2cn(C)c(=O)cn2)CC3)nc1` [Example 15, 5-{7-[(5-Methoxypyridin-2-yl)methoxy]-1,2,3,4-tetrahydroisoquinoline-2-carbonyl}-1-methyl-1,2-dihydropyrazin-2-one], the EC50 is 56.8 nM under setting [1] and less than 100 nM under setting [2].

On to `COc1ccc(COc2cc3c(cn2)CCN(C(=O)c2ccc(OC)nc2)C3)nc1` [Example 16, 7-[(5-Methoxypyridin-2-yl)methoxy]-2-(6-methoxypyridine-3-carbonyl)-1,2,3,4-tetrahydro-2,6-naphthyridine], for which the EC50 is 39.5 nM under setting [1] and less than 100 nM under setting [2].

As to `COc1ccc(C(=O)N(C)c2ccc3c(c2)CN(c2ccc(OC)nc2)CC3)nc1` [Example 17, 5-Methoxy-N-[2-(6-methoxypyridin-3-yl)-1,2,3,4-tetrahydroisoquinolin-7-yl]-N-methylpyridine-2-carboxamide], the EC50 is, setting by setting: under setting [1], 333 nM; under setting [2], 100 to 500 nM.

Consider `COc1ccc(COc2ccc3c(c2)CN(S(=O)(=O)c2ccc(OC)nc2)CC3)nc1` [Example 18, 7-[(5-Methoxypyridin-2-yl)methoxy]-2-[(6-methoxypyridin-3-yl)sulfonyl]-1,2,3,4-tetrahydroisoquinoline], for which the EC50 under setting [1] worked out at 390 nM and the EC50 under setting [2] was 100 to 500 nM.

For the molecule `COc1ccc(OCCOc2ccc3c(c2)CN(C(=O)c2ccc(OC)nc2)CC3)nc1` [Example 19, 7-{2-[(5-Methoxypyridin-2-yl)oxy]ethoxy}-2-(6-methoxypyridine-3-carbonyl)-1,2,3,4-tetrahydroisoquinoline], the EC50 by setting is: under setting [1], 37.4 nM; under setting [2], less than 100 nM.

With `COc1ccc(OCc2cn3c(n2)CN(C(=O)c2ccc(OC)nc2)CC3)nc1` [Example 20, 5-Methoxy-2-{[7-(6-methoxypyridine-3-carbonyl)-5H,6H,7H,8H-imidazo[1,2-a]pyrazin-2-yl]methoxy}pyridine], the EC50 under setting [1] is 1000 nM and the EC50 under setting [2] is greater than 500 nM.

As to `COc1ccc(COc2cnc3c(c2)CN(C(=O)c2ccc(-n4ccnc4)nc2)CC3)nc1` [Example 24, 6-[6-(1H-Imidazol-1-yl)pyridine-3-carbonyl]-3-[(5-methoxypyridin-2-yl)methoxy]-5,6,7,8-tetrahydro-1,6-naphthyridine], the EC50 is 2.06 nM under setting [1] and less than 100 nM under setting [2].

Consider `C=CCOc1ccc(C(=O)N2CCc3ncc(OCc4ccc(OC)cn4)cc3C2)cn1` [Example 24.1], for which the EC50 is, setting by setting: under setting [1], 3.01 nM; under setting [2], less than 100 nM.

For `COCCOc1ccc(C(=O)N2CCc3ncc(OCc4ccc(OC)cn4)cc3C2)cn1` [Example 24.2], the EC50 under setting [2] was less than 100 nM.

Regarding `COc1ccc(COc2cnc3c(c2)CN(C(=O)c2ccc(OCCF)nc2)CC3)nc1` [Example 24.3], the EC50 was 4.45 nM under setting [1] and less than 100 nM under setting [2].

Consider `COCCn1cc(C(=O)N2CCc3ncc(OCc4ccc(OC)cn4)cc3C2)ccc1=O` [Example 24.4], for which the EC50 under setting [1] is 43 nM and the EC50 under setting [2] was less than 100 nM.

Turning to `COc1ccc(COc2ccc3c(c2)CN(C(=O)c2ccc(OC)nc2)CCO3)nc1` [Example 25, 7-[(5-Methoxypyridin-2-yl)methoxy]-4-(6-methoxypyridine-3-carbonyl)-2,3,4,5-tetrahydro-1,4-benzoxazepine], the EC50 is 153 nM under setting [1] and 100 to 500 nM under setting [2].

On to `COc1ccc(COc2ccc3c(n2)CN(C(=O)c2ccc(OC)nc2)CC3)nc1` [Example 26, 2-[(5-Methoxypyridin-2-yl)methoxy]-7-(6-methoxypyridine-3-carbonyl)-5,6,7,8-tetrahydro-1,7-naphthyridine], for which the EC50 runs as follows: under setting [1], 39.3 nM; under setting [2], less than 100 nM.

As to `COc1ccc(Cn2c3c(ccc2=O)CCN(C(=O)c2ccc(OC)nc2)C3)nc1` [Example 26.1], under setting [2], the EC50 is greater than 500 nM.

On to `COc1ccc(COc2cnc3c(c2)CN(c2ccc(OC)cn2)CC3)nc1` [Example 27, 6-(5-Methoxypyridin-2-yl)-3-[(5-methoxypyridin-2-yl)methoxy]-5,6,7,8-tetrahydro-1,6-naphthyridine], for which the EC50 runs as follows: under setting [1], 3.19 nM; under setting [2], less than 100 nM.

`COc1ccc(COc2ccc3c(c2)CN(c2ccc(=O)n(C)n2)CC3)nc1` [Example 27.1]: the EC50 is 13.4 nM under setting [1] and less than 100 nM under setting [2].

On to `COc1ccc(COc2ccc3c(c2)CN(c2ccn(C)c(=O)c2)CC3)nc1` [Example 27.2], for which the EC50 reads like this: under setting [1], 260 nM; under setting [2], 100 to 500 nM.

Regarding `COc1ccc(COc2ccc3c(c2)CN(C(=O)c2ccc(OC)nc2)CC3C)nc1` (stereo not drawn) [Example 28], the EC50 under setting [2] was less than 100 nM.

On to `COc1ccc(COc2ccc3c(c2)CN(c2cnn(C)c2)CC3)nc1` [Example 29, 7-[(5-Methoxypyridin-2-yl)methoxy]-2-(1-methyl-1H-pyrazol-4-yl)-1,2,3,4-tetrahydroisoquinoline], for which the EC50 under setting [1] was 161 nM and the EC50 under setting [2] lay in the range of 100 to 500 nM.

On to `COc1ccc(COc2ccc3c(c2)CN(c2ccc(=O)n(C)c2)CC3)nc1` [Example 29.1], for which the EC50 by setting is: under setting [1], 86 nM; under setting [2], less than 100 nM.

As to `COc1ccc(OCCn2cnc3c2CN(C(=O)c2ccc(OC)nc2)CC3)nc1` [Example 30, 2-Methoxy-5-(3-{2-[(5-methoxypyridin-2-yl)oxy]ethyl}-3H,4H,5H,6H,7H-imidazo[4,5-c]pyridine-5-carbonyl)pyridine], the half-maximal effective concentration (EC50) by setting is: under setting [1], 704 nM; under setting [2], greater than 500 nM.

For `COc1ccc(COc2ccc3c(c2)CN(C(=O)c2ccc(OC)nc2)C(C)C3)nc1` (stereo not drawn) [Example 31, 7-[(5-Methoxypyridin-2-yl)methoxy]-2-(6-methoxypyridine-3-carbonyl)-3-methyl-1,2,3,4-tetrahydroisoquinoline], the concentration for a half-maximal effect (EC50) is, setting by setting: under setting [1], 108 nM; under setting [2], 100 to 500 nM.

For `CC(=O)N1CCc2ccc(OCc3ccc(O)cn3)cc2C1` [Example 32, 1-{7-[(5-Hydroxypyridin-2-yl)methoxy]-1,2,3,4-tetrahydroisoquinolin-2-yl}ethan-1-one], the EC50 is 191 nM under setting [1] and 100 to 500 nM under setting [2].

Regarding `COc1ccc(COc2ccc3c(c2)CN(C(=O)OCC(C)C)CC3)nc1` [Example 33, 2-Methylpropyl 7-[(5-methoxypyridin-2-yl)methoxy]-1,2,3,4-tetrahydroisoquinoline-2-carboxylate], the EC50 was 36.5 nM under setting [1] and less than 100 nM under setting [2].

Turning to `COc1ccc(COc2ccc3c(c2)CN(C(=O)c2ccc(OCCF)nc2)CC3)nc1` [Example 34, (6-(2-Fluoroethoxy)pyridin-3-yl)(7-((5-methoxypyridin-2-yl)methoxy)-3,4-dihydroisoquinolin-2(1H)-yl)methanone], the EC50 is, setting by setting: under setting [1], 2.48 nM; under setting [2], less than 100 nM.
